What is called IC50 is the concentration that inhibits the measured activity by half.

Data on 29 compounds can be found in patent US11028090B2 (Dong Wha Pharm. Co., Ltd., priority 2017, dated 2021).

Where two headings read alike, the source gives them in different places.

Data set [1] addresses BRD4 (BD1+BD2) bromodomain (Homo sapiens (Human), UniProt O60885). The data set can be described thus: BRD4 binding inhibition (AlphaScreen, GST-BRD4 vs tetraacetylated histone H4 peptide). Put shortly:
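AlphaScreen read after 30 min dark incubation at room temperature with glutathione acceptor/streptavidin donor beads (10 μg/ml each). The beads were added to compound plus 100 nM biotin-H4 (K5,8,12,16-acetyl) peptide and 100 nM GST-BRD4 BD1+BD2 in pH 7.4 HEPES/Tween/BSA/DTT buffer.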

The test system of data set [2] is acute myelogenous leukemia cells (MV-4-11 cells). The data set is described as follows: Cytotoxicity to acute myelogenous leukemia cells (MV-4-11 cells), CCK-8.
The mark [3] stands for this setting: GST-BRD4 (BD1+BD2) / biotinylated acetyl-histone H4 (Lys5,8,12,16) peptide, read-out: IC50, BRD4 binding inhibition.
[4] abbreviates: GST-BRD4 (BD1+BD2) vs biotinylated acetyl-histone H4 peptide, AlphaScreen, read-out: BRD4 IC50.
[5] abbreviates: Homo sapiens, MV4-11, 72 h, read-out: MV-4-11 Cytotoxicity IC50.
Where [6] appears, read: Homo sapiens, MV4-11, 72 h, read-out: IC50, cytotoxicity against acute myelogenous leukemia cells.

Turning to `COCCOc1ccc2c(c1)nc(NCCCCNC(=O)[C@H](NC(=O)[C@@H](O)C(C)C)C(C)C)c1nnc(C)n12` (stereo in doubt) [Example 403, 2-(S,R)-hydroxy-N-(1-{4-[7-(2-methoxy-ethoxy)-1-methyl-[1,2,4]triazolo[4,3-a]quinoxaline-4-ylamino]-butylcarbamoyl}-2-methyl-propyl)-3-methyl-butyramide], the IC50 in data set [1] (setting [3]) is not above 10 nM; in data set [1] (setting [4]), 10 nM; in data set [2] (setting [5]), 610 nM.

As for `Cc1nnc2c(NCCCCNC(=O)OC(C)(C)C)nc3ccccc3n12` [Example 1, [4-(1-methyl-[1,2,4]triazolo[4,3-a]quinoxaline-4-ylamino)-butyl]-carbamic acid-tert-butylester], the IC50 was determined as 74 nM in data set [1] (setting [4]) and 980 nM in data set [2] (setting [5]). As to `Cc1nnc2c(NCCCCNC(=O)[C@@H](O)C(C)C)nc3ccccc3n12` [Example 10, 2-(S)-hydroxy-N-[4-(1-methyl-[1,2,4]triazolo[4,3-a]quinoxaline-4-ylamino)-butyl]-3-methyl-butyramide], the half-maximal inhibitory concentration (IC50) in data set [1] (setting [3]) was not above 10 nM; in data set [1] (setting [4]), 5 nM; in data set [2] (setting [5]), 160 nM.

As for `Cc1nnc2c(NCCCCNC(=O)CC(C)C)nc3cc(F)c(F)cc3n12` [Example 37, N-[4-(7,8-difluoro-1-methyl-[1,2,4]triazolo[4,3-a]quinoxaline-4-ylamino)-butyl]-3-methyl-butyramide], the half-maximal inhibitory concentration (IC50) in data set [1] (setting [3]) is not above 10 nM; in data set [1] (setting [4]), 8 nM; in data set [2] (setting [6]), not above 200 nM; in data set [2] (setting [5]), 121 nM. As for `Cc1nnc2c(NCCCCNC(=O)[C@@H](O)C(C)C)nc3cc(F)c(F)cc3n12` [Example 39, N-[4-(7,8-difluoro-1-methyl-[1,2,4]triazolo[4,3-a]quinoxaline-4-ylamino)-butyl]-2-(S)-hydroxy-3-methyl-butyramide], the half-inhibitory concentration (IC50) in data set [1] (setting [3]) is not above 10 nM; in data set [1] (setting [4]), 6 nM; in data set [2] (setting [5]), 190 nM. In the case of `CNc1ccc2c(c1)nc(NCCCCNC(=O)CC(C)C)c1nnc(C)n12` [Example 252, 3-methyl-N-[4-(1-methyl-7-methylamino-[1,2,4]triazolo[4,3-a]quinoxaline-4-ylamino)-butyl]-butyramide], in data set [2] (setting [5]), the IC50 amounted to 254 nM.

For the compound `Cc1nnc2c(NCCCCNC(=O)CC(C)C)nc3cc(NC(=O)NC(C)C)ccc3n12` [Example 255, N-{4-[7-(3-isopropyl-ureido)-1-methyl-[1,2,4]triazolo[4,3-a]quinoxaline-4-ylamino]-butyl}-3-methyl-butyramide], the IC50 in data set [2] (setting [6]) was not above 200 nM; in data set [2] (setting [5]), 93 nM. For the compound `Cc1nnc2c(NCCCCNC(=O)CC(C)C)nc3cc(NC(=S)NC(C)C)ccc3n12` [Example 256, N-{4-[7-(3-isopropyl-thioureido)-1-methyl-[1,2,4]triazolo[4,3-a]quinoxaline-4-ylamino]-butyl}-3-methyl-butyramide], the IC50 in data set [2] (setting [6]) was not above 200 nM; in data set [2] (setting [5]), 84 nM. With `Cc1nnc2c(NCCCCNC(=O)CC(C)C)nc3cc(NS(=O)(=O)C(C)C)ccc3n12` [Example 259, 3-methyl-N-{4-[1-methyl-7-(propane-2-sulfonylamino)-[1,2,4]triazolo[4,3-a]quinoxaline-4-ylamino]-butyl}-butyramide], the IC50 in data set [2] (setting [5]) was 339 nM. The same measure, in the same setting: next, `Cc1nnc2c(NCCCCNC(=O)C(C)(C)C)nc3ccc(OC(F)(F)F)cc3n12` [Example 265, 2,2-dimethyl-N-[4-(1-methyl-8-trifluoromethoxy-[1,2,4]triazolo[4,3-a]quinoxaline-4-ylamino)-butyl]-propionamide]: 680 nM; `Cc1nnc2c(NCCCCNC(=O)C(C)(C)C)nc3cc(OC(F)(F)F)ccc3n12` [Example 271, 2,2-dimethyl-N-[4-(1-methyl-7-trifluoromethoxy-[1,2,4]triazolo[4,3-a]quinoxaline-4-ylamino)-butyl]-propionamide]: 880 nM. Regarding `COc1ccc2c(c1)nc(NCCCCNC(=O)C1CC1)c1nnc(C)n12` [Example 282, cyclopropane; carboxylic acid-[4-(7-methoxy-1-methyl-[1,2,4]triazolo[4,3-a]quinoxaline-4-ylamino)-butyl]-amide], the half-maximal inhibitory concentration (IC50) in data set [2] (setting [5]) is 534 nM. Still for that read-out and setting: the figure for `Cc1nnc2c(NCCCCNC(=O)CC(C)C)nc3cc(OC(=O)N4CCOCC4)ccc3n12` [Example 351] is 290 nM. Consider `CSc1ccc2c(c1)nc(NCCCCNC(=O)CC(C)C)c1nnc(C)n12` [Example 356, 3-methyl-N-[4-(1-methyl-7-methylsulfanyl-[1,2,4]triazolo[4,3-a]quinoxaline-4-ylamino)-butyl]-butyramide], for which the IC50 in data set [2] (setting [6]) was not above 200 nM; in data set [2] (setting [5]), 143 nM.

Turning to `Cc1nnc2c(NCCCCNC(=O)OC(C)C)nc3cc(OC(C)C)ccc3n12` [Example 452, [4-(7-isopropoxy-1-methyl-[1,2,4]triazolo[4,3-a]quinoxaline-4-ylamino)-butyl]-carbamic acid isopropylester], the concentration for half-maximal inhibition (IC50) in data set [2] (setting [5]) came to 320 nM. As to `COCCOc1cc2c(cc1OC)nc(NCCCCNC(=O)OC(C)(C)C)c1nnc(C)n12` [Example 483, {4-[7-methoxy-8-(2-methoxy-ethoxy)-1-methyl-[1,2,4]triazolo[4,3-a]quinoxaline-4-ylamino]-butyl}-carbamic acid-tert-butylester], the IC50 in data set [2] (setting [5]) is 460 nM. Same read-out and setting: the figure for `COCCOc1cc2c(cc1OC)nc(NCCCCN)c1nnc(C)n12` [Example 484, N^1-[7-methoxy-8-(2-methoxy-ethoxy)-1-methyl-[1,2,4]triazolo[4,3-a]quinoxaline-4-yl]-butane-1,4-diamine ditrifluoroacetic acid] is 460 nM; for `Cc1nnc2c(NCCCCNC(=O)[C@@H](NC(=O)CC(C)C)C(C)C)nc3cc(N4C[C@@H](C)O[C@@H](C)C4)ccc3n12` [Example 518, (S)-N-{4-[7-(2,6-dimethyl-morpholine-4-yl)-1-methyl-[1,2,4]triazolo[4,3-a]quinoxaline-4-ylamino]-butyl}-3-methyl-2-(3-methyl-butyrylamino)-butyramide] it is 480 nM. Still for that read-out and setting: the figure for `Cc1nnc2c(NCCCCNC(=O)OC(C)(C)C)nc3cc(N4CCc5sccc5C4)ccc3n12` [Example 526, {4-[7-(6,7-dihydro-4H-thiano[3,2-c]pyridine-5-yl)-1-methyl-[1,2,4]triazolo[4,3-a]quinoxaline-4-ylamino]-butyl}-carbamic acid-tert-butylester] is 802 nM.

`COc1cc2nc(NCCCCNC(=O)CC(C)C)c3nnc(C)n3c2cc1NC(=O)NC(C)C` [Example 561, N-{4-[8-(3-isopropyl-ureido)-7-methoxy-1-methyl-[1,2,4]triazolo[4,3-a]quinoxaline-4-ylamino]-butyl}-3-methyl-butyramide]: the concentration for half-maximal inhibition (IC50) in data set [2] (setting [6]) was not above 200 nM; in data set [2] (setting [5]) it was 60 nM. With `COc1cc2nc(NCCCCNC(=O)CC(C)C)c3nnc(C)n3c2cc1N(S(C)(=O)=O)S(C)(=O)=O` [Example 566, N-[4-(8-dimethanesulfonyl-amino-7-methoxy-1-methyl-[1,2,4]triazolo[4,3-a]quinoxaline-4-ylamino)-butyl]-3-methyl-butyramide], in data set [2] (read-out: MV-4-11 Cytotoxicity IC50, MV-4-11 cells, 72 hours, CCK-8), the 50% inhibitory concentration (IC50) stood at 550 nM.

As for `COc1cc2nc(NCCCCNC(=O)OC(C)(C)C)c3nnc(C)n3c2cc1F` [Example 572, [4-(8-fluoro-7-methoxy 1-methyl-[1,2,4]triazolo[4,3-a]quinoxaline-4-ylamino)-butyl]-carbamic acid-tert-butylester], in data set [2] (setting [5]), the concentration for half-maximal inhibition (IC50) worked out at 238 nM. With `COc1cc2c(cc1OCCN1CCOCC1)nc(NCCCCNC(=O)CC(C)C)c1nnc(C)n12` [Example 577, N-{4-[8-methoxy-1-methyl-7-(2-morpholine-4-yl-ethoxy)-[1,2,4]triazolo[4,3-a]quinoxaline-4-ylamino]-butyl}-3-methyl butyramide], the IC50 was not above 200 nM in data set [2] (setting [6]) and 87 nM in data set [2] (setting [5]). The matching figures for `Cc1noc(C)c1-c1ccc2c(c1)nc(NCCCCN)c1nnc(C)n12` [Example 584, N^1-[7-(3,5-dimethyl-isoxazol-4-yl)-1-methyl-[1,2,4]triazolo[4,3-a]quinoxaline-4-yl]-butane-1,4-diamine ditrifluoroacetic acid]: not above 200 nM and 130 nM. As to `COc1ccc2c(c1)nc(NCCCCC(=O)NCc1ccccc1)c1nnc(C)n12` [Example 658], the results for the IC50 in data set [1] (setting [3]) and in data set [1] (setting [4]) were not above 50 nM and 26 nM, respectively. For `Cc1nnc2c(NCCCCC(=O)NC(C)C)nc3ccccc3n12` [Example 659, 5-(1-methyl-[1,2,4]triazolo[4,3-a]quinoxaline-4-ylamino)-pentanoic acid isopropylamide], the concentration for half-maximal inhibition (IC50) in data set [1] (setting [4]) was determined as 75 nM. The same measure, in the same setting: the figure for `Cc1nnc2c(NCCCCCC(=O)NC(C)C)nc3ccccc3n12` [Example 661, 6-(1-methyl-[1,2,4]triazolo[4,3-a]quinoxaline-4-ylamino)-hexanoic acid isopropylamide] is 78 nM.

Turning to `Cc1nnc2c(NCCCCCC(=O)NCC(C)C)nc3ccccc3n12` [Example 662, 6-(1-methyl-[1,2,4]triazolo[4,3-a]quinoxaline-4-ylamino)-hexanoic acid isobutylamide], the IC50 is not above 50 nM in data set [1] (setting [3]) and 39 nM in data set [1] (setting [4]).

Regarding “N-(4-{7-[4-(N-hydroxycarbamimidoyl)-benzoyl]-1-methyl-[1,2,4]triazolo[4,3-a]quinoxaline-4-ylamino}-butyl)-3-methyl-butyramide [Example 347]”, the 50% inhibitory concentration (IC50) in data set [1] (setting [3]) is not above 50 nM; in data set [1] (setting [4]) it was 18 nM.
